From patent US10966978B2, “Dose and regimen for HDM2-p53 interaction inhibitors” (Novartis AG, priority 2016, dated 2021)
Where two headings read alike, the source gives them in different places. Marks after values point to notes of the source that are not given here.

What was measured:
[1] = test system: advanced TP53 wild-type (WT) leukemias (AML, ALL); type: in vivo, human
From the text: Tables 5 and 6 and FIG. 6 provide efficacy information for dosing regimen 1B in comparison to other regimens.

[2] = Compartmental PK modeling of average concentration during cycle 1, patients with hematological tumors; type: in vivo, human; settings: all patients with measured PK, four regimens
Description: Pharmacokinetic data have been evaluated throughout the course of the clinical study. […] Furthermore, an integrated analysis of all available HDM201 concentrations was conducted using a population approach. The PK of HDM201 was best described by a 1-compartment PK model with a delayed zero- and first-order absorption process, and a linear clearance. Body weight was identified as a statistically significant covariate on apparent central volume of distribution (Vc/F), in which Vc/F increased with increasing body weight.
Compartmental PK modeling was used to estimate the individual average concentration during cycle 1 for patients with hematological tumors treated following the four different (FIG. 7). For all patients with measured PK, the estimated average drug concentrations during cycle 1 were above the most conservative average tumor stasis concentration of about 41 ng/mL per cycle determined from PKPD modeling of preclinical data (human SJSA-1 xenograft rat model).

platelets = experiment: PK/PD model of thrombocytopenia (modeled platelet kinetic profiles); design: species or system human; settings: regimen 1B (150 mg)
From the text: Based on individual PK and platelet counts data overtime a PK/PD model was established.
PK model: 1 compartment with biphasic absorption.
PD model: Adjusted Friberg model for thrombocytopenia including PLT transfusions and effect on HDM201 on proliferative cells and regulations.
The platelet kinetic profiles shown in FIG. 5 are modeled based on the following doses as tested in each regimen (in order from top to bottom in FIG. 5): […]

[3] = AML CR patient, 1A 250 mg, March 2017
[4] = AML CR patient, 1A 400 mg, March 2017
[5] = AML CR patient, 2C 45 mg, March 2017
[6] = AML CRi patient, 1B 150 mg, March 2017
[7] = CR, Reg 1A 250 mg, person, September 2017
[8] = CR, Reg 1A 400 mg, Male/71, September 2017
[9] = CR, Reg 1B 120 mg, Male/67, September 2017
[10] = CR, Reg 2C 45 mg, Male/76, September 2017
[11] = CR, Reg 2C 45 mg, person, September 2017
[12] = CRi, Reg 1A 250 mg, person, September 2017
[13] = CRi, Reg 1B 150 mg, person, September 2017
[14] = CRi, Reg 2C 45 mg, Male/70, September 2017
[15] = CRi, Reg 2C 45 mg, Male/79, September 2017
[16] = CRi, Reg 2C 45 mg, person one, September 2017
[17] = CRi, Reg 2C 45 mg, person three, September 2017
[18] = Dose escalation, Regimen 2C 45 mg (8 patients), September 2017
[19] = Dose expansion, Regimen 2C 45 mg (17 patients), September 2017
[20] = Regimen 1A (n = 15), March 2017

Compound: COc1ncc(-c2nc3c(n2C(C)C)[C@H](c2ccc(Cl)cc2)N(c2cc(Cl)cn(C)c2=O)C3=O)c(OC)n1 [HDM201, (S)-5-(5-Chloro-1-methyl-2-oxo-1,2-dihydro-pyridin-3-yl)-6-(4-chloro-phenyl)-2-(2,4-dimethoxy-pyrimidin-5-yl)-1-isopropyl-5,6-dihydro-1H-pyrrolo[3,4-d]imidazol-4-one]
- Count recovery time from C1D1 [1, 3]: 48 days
- Duration of CR/CRi [1, 3]: 50 days
- Time to CR/CRi [1, 3]: 7 weeks
- Count recovery time from C1D1 [1, 4]: 40 days
- Duration of CR/CRi [1, 4]: 23 days
- Time to CR/CRi [1, 4]: 6 weeks
- Count recovery time from C1D1 [1, 5]: 32 days
- Duration of CR/CRi [1, 5]: 152 days
- Time to CR/CRi [1, 5]: 5 weeks
- Duration of CR/CRi [1, 6]: 51 days
- Time to CR/CRi [1, 6]: 11 weeks
- Duration of CR/CRi ([1]; AML CRi patient, 2C 45 mg, donor five, March 2017, patient withdrew consent while on CRi): 1* days
- Duration of CR/CRi ([1]; AML CRi patient, 2C 45 mg, donor two, March 2017, patient ongoing at data cut off): 1^† days
- CR/CRi results, number of patients ([1]; AML patients, Regimen 1B, September 2017): The already observed 2 CR/CRi results out of the small number of patients treated so far demonstrate the strong antitumor activity of the HDM201 in AML patients when dosed according to Regimen 1B.
- Count recovery time from C1D1 [1, 7]: 48 days
- Duration of CR/CRi [1, 7]: 50 days
- Time to CR/CRI [1, 7]: 7 weeks
- Count recovery time from C1D1 [1, 8]: 40 days
- Duration of CR/CRi [1, 8]: 23 days
- Time to CR/CRI [1, 8]: 6 weeks
- Count recovery time from C1D1 [1, 9]: 28 days
- Duration of CR/CRi [1, 9]: 45 days
- Time to CR/CRI [1, 9]: 4 weeks
- Count recovery time from C1D1 [1, 10]: 32 days
- Duration of CR/CRi [1, 10]: 152 days
- Time to CR/CRI [1, 10]: 5 weeks
- Count recovery time from C1D1 [1, 11]: 30 days
- Duration of CR/CRi [1, 11]: 41 days
- Time to CR/CRI [1, 11]: 4 weeks
- Duration of CR/CRi [1, 12]: 67 days
- Time to CR/CRI [1, 12]: 3 weeks
- Duration of CR/CRi [1, 13]: 51 days
- Time to CR/CRI [1, 13]: 11 weeks
- Duration of CR/CRi [1, 14]: 1 days
- Time to CR/CRI [1, 14]: 12 weeks
- Duration of CR/CRi [1, 15]: 62 days
- Time to CR/CRI [1, 15]: 4 weeks
- Duration of CR/CRi [1, 16]: 105 days
- Time to CR/CRI [1, 16]: 4 weeks
- Duration of CR/CRi [1, 17]: 40 days
- Time to CR/CRI [1, 17]: 7 weeks
- CR, number of patients ([1]; Dose escalation, Regimen 1A 250 mg (3 patients), September 2017): 250 mg (3): 1 CR
- CR, number of patients ([1]; Dose escalation, Regimen 1A 400 mg (9 patients), September 2017): 400 mg (9): 1 CR
- CR, number of patients ([1]; Dose escalation, Regimen 1B 120 mg (6 patients), September 2017): 120 mg (6): 1 CR
- CRi, number of patients ([1]; Dose escalation, Regimen 1B 150 mg (6 patients), September 2017): 150 mg (6): 1 CRi
- CR, number of patients [1, 18]: 1
- CRi, number of patients [1, 18]: 3
- CRi, number of patients ([1]; Dose expansion, Regimen 1A 250 mg, 6 pts, September 2017): 1 CRi
- CR, number of patients [1, 19]: 1 CR, 1CRi
- CRi, number of patients [1, 19]: 1 CR, 1CRi
- BOR: CR [1, 20]: 2 (13) n (%)
- BOR: CRi [1, 20]: 0 (0) n (%)
- ORR (CR + CRi + PR) [1, 20]: 2 (13) n (%)
- BOR: CR ([1]; Regimen 1B (n = 6), March 2017): 0 (0) n (%)
- BOR: CRi ([1]; Regimen 1B (n = 6), March 2017): 1 (17) n (%)
- ORR (CR + CRi + PR) ([1]; Regimen 1B (n = 6), March 2017): 1 (17) n (%)
- BOR: CR ([1]; Regimen 2A (n = 7), March 2017): 0 (0) n (%)
- BOR: CRi ([1]; Regimen 2A (n = 7), March 2017): 0 (0) n (%)
- ORR (CR + CRi + PR) ([1]; Regimen 2A (n = 7), March 2017): 0 (0) n (%)
- BOR: CR ([1]; Regimen 2C (n = 7), March 2017): 1 (14) n (%)
- BOR: CRi ([1]; Regimen 2C (n = 7), March 2017): 3 (43) n (%)
- ORR (CR + CRi + PR) ([1]; Regimen 2C (n = 7), March 2017): 4 (57) n (%)
- BOR: CR ([1]; Total (N = 35), March 2017): 3 (9) n (%)
- BOR: CRi ([1]; Total (N = 35), March 2017): 4 (11) n (%)
- ORR (CR + CRi + PR) ([1]; Total (N = 35), March 2017): 7 (20) n (%)
- patients with CRi ([1]; regimen 1B, hematological tumors): One patient
- estimated average concentration during cycle 1 relative to tumor stasis concentration (about 41 ng/mL) [2]: above
- platelet kinetic profile, modeled, compared among regimens with single agent activity (platelets): best overall platelet kinetic profile
